Measurements taken from paper PMC11546255, “Exploring the Frontier of Cyclic Dipeptides: A Bioinformatics Approach to Potential Therapeutic Applications in Schizophrenia” (International Journal of Molecular Sciences, 2024).

Key:
human SIGMA1 receptor [1] = target: T1, human SIGMA1 receptor (Homo sapiens, UniProt Q99720); test: SIGMA1 filtration radioligand binding assay ([3H]DTG, membranes of transfected HEK293 cells); parameters: expressed in transfected cells; membrane/cell debris preparation; settings: for inhibition at 20 µM / SIGMA1 % Inhibition of Max Dose: Max Dose 20.000 μM
Protocol: For SIGMA1 receptor expression in HEK293 cells, the human SIGMA1 receptor (U75283) in pcDNA 3.1(+) (Promega Corp., Madison, WI, USA) was used. In total, 2 μg of DNA was transfected in HEK293 cells (1,000,000 cells/dish) using FuGENE® HD Transfection Reagent (Promega Corp., Madison, WI, USA) according to the manufacturer’s recommendations. After 24 h, the medium was replaced by a medium containing the G418 antibiotic (300 μg/mL) (Burlington, MA, USA). The survival clones were scraped and cultured in individual dishes. After the cell amplification, they were harvested with trypsin and homogenized, then centrifuged at 50,000× g for 1 h, and the cell debris was used for the binding assay.
A SIGMA1 receptor-enriched membrane preparation was utilized for the binding assays at a 1.1 mg/mL concentration. Each assay well was loaded with 13 μg of this membrane preparation to ensure consistent receptor availability across all experimental conditions.
This methodical preparation ensures that the assay conditions are reproducible and that the concentration-dependent effects of the compounds can be accurately evaluated.
Reference and test compounds were diluted and transferred sequentially to the assay plate. We added non-specific binding compounds (low control, LC) and DMSO as the total binding high control (HC) according to the non-specific binding plate layout. We added 100 μL of the membrane stock solution and 100 μL of the radiolabeled ligand to the plate. We sealed the plates and shook them at 300 rpm under specified conditions. We filtered the reaction mixture through GF/B plates using a Filtermate-Harvester (PerkinElmer, Waltham, MA, USA, Cat: C961961), followed by washing with cold wash buffer, and dried and sealed the filter plates.
We added non-specific binding compounds (as the LC) and DMSO as the total binding HC according to the non-specific binding plate layout. Then, we added 100 μL of the membrane stock solution and 100 μL of the radiolabeled ligand to the plate. We sealed the plates and shook them at 300 rpm under specified conditions. […] After the binding experiment, we filtered the reaction mixture through GF/B plates using a Perkin Elmer Filtermate Harvester, washing each plate six times with a cold wash buffer. We dried the filter plates for 1 h at 50 °C. After drying, we sealed the bottom of the filter plate wells with Perkin Elmer Unifilter-96 backing tape. […] We counted the 3H on the filters using a Perkin Elmer MicroBeta2 Reader.
We analyzed the data using Prism 5. We fitted dose–response curves and determined the half maximal inhibitory concentration (IC50) using the “log(inhibitor) vs. response-variable slope” model.
We used the Z’-Prime equation for quality control, which can be written as follows: Z′ Factor=1−3×STDEVHC+3×STDEVLC/AVGHC − AVGLC∗100% where STDEVHC is the average standard deviation of MAX, STDEVLC is the average standard deviation of MIN, AVGHC is the average of MAX, and AVGLC is the average of MIN. Z’ must be ≥0.5 as the quality control standard.

human SIGMA1 receptor [2] = target: T1, human SIGMA1 receptor; test: radioligand binding; filtration competition assay: membranes of HEK293 cells expressing human SIGMA1 (13 ug per well), [3H]DTG at 0.005 uM displaced by the test compound, max dose 20 uM, room temperature, GF/B filter plates
[3] = [3H]DTG 0.005 μM, membranes of HEK293 cells expressing human SIGMA1, read-out: SIGMA1 IC50
[4] = [3H]DTG 0.005 μM, membranes of HEK293 cells expressing human SIGMA1, read-out: SIGMA1 Ki

T1 sequence (Q99720 whole entry): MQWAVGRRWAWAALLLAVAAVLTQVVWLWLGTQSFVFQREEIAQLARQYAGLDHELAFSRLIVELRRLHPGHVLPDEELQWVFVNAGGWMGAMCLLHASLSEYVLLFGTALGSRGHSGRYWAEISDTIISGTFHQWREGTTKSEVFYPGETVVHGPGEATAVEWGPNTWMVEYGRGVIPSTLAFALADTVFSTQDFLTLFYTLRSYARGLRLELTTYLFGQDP

Compound | IC50 (human SIGMA1 receptor [1]; [3]) [µM] | Ki (human SIGMA1 receptor [1]; [4]) [µM] | SIGMA1 % Inhibition of Max Dose (human SIGMA1 receptor [1]) [%] | other results
C[C@@H]1NC(=O)[C@H](Cc2cnc[nH]2)NC1=O [Cyclo(Ala-His)] | 19.4 | 16.9 |  | inhibition at 20 µM (human SIGMA1 receptor [1]): 50.2%
O=C1N[C@@H](Cc2ccccc2)C(=O)N[C@H]1Cc1ccccc1 [Cyclo(Phe-Phe)] | > 20 | > 17.4 | 39.40 | 
O=C1N[C@@H](Cc2ccc(O)cc2)C(=O)N[C@H]1Cc1ccc(O)cc1 [Cyclo(Tyr-Tyr)] | > 20 | > 17.4 | 40.29 | 
O=C1CNC(=O)CN1 [Cyclo(Gly-Gly)] | > 20 | > 17.4 | 3.200 | 
O=C1NC(Cc2ccccc2)C(=O)N2CCCC12 (centres unmarked) [Cyclo(Phe-Pro)] | > 20 | > 17.4 | 24.20 | 
O=C1NC(Cc2ccc(O)cc2)C(=O)N2CC(O)CC12 (centres unmarked) [Cyclo(Hyp-Tyr)] | > 20 | > 17.4 | 49.80 | 
cyclo(Val-Val) |  |  |  | IC50 (human SIGMA1 receptor [2]): > 20 µM; Ki (human SIGMA1 receptor [2]): > 17.4 µM
cyclo(Ala-His) |  |  |  | % Inhibition of Max Dose (human SIGMA1 receptor [2]): 50.2%; IC50 (human SIGMA1 receptor [2]): 19.4 µM
cyclo(Val-Gly) |  |  |  | % Inhibition of Max Dose (human SIGMA1 receptor [2]): 61.9%; IC50 (human SIGMA1 receptor [2]): 11.5 µM
cyclo(Ala-Gln) |  |  |  | % Inhibition of Max Dose (human SIGMA1 receptor [2]): 59.7%; IC50 (human SIGMA1 receptor [2]): 13.4 µM
O=C1CNC(=O)[C@H](Cc2ccc(O)cc2)N1 [Cyclo(Gly-Tyr)] | > 20 | > 17.4 | 42.82 | 
CC(C)C1NC(=O)CNC1=O (centres unmarked) [Cyclo(Val-Gly)] |  |  |  | Ki (human SIGMA1 receptor [1]): 9.95 µM; inhibition at 20 µM (human SIGMA1 receptor [1]): 61.9%; IC50 (human SIGMA1 receptor [1]; SIGMA1 IC50, [3H]DTG 0.005 μM, membranes of HEK293 cells expressing human SIGMA1): 11.5 µM
O=C1NC(Cc2ccccc2)C(=O)N2CC(O)CC12 (centres unmarked) [Cyclo(Hyp-Phe)] | > 20 | > 17.4 | 54.26 | 
C[C@@H]1NC(=O)[C@H](CCC(N)=O)NC1=O [Cyclo(Ala-Gln)] | 13.4 | 11.7 |  | inhibition at 20 µM (human SIGMA1 receptor [1]): 59.7%
CC1NC(=O)CNC1=O (centres unmarked) [Cyclo(Ala-Gly)] | > 20 | > 17.4 | 44.60 | 
